Entries after “also recorded” stand apart in the source; their conditions may differ.

The values that follow come from patent US20250324965A1, “Indicator Clearance Monitoring in Machine Perfusion of an Organ” (The Medical College of Wisconsin, Inc., priority 2021, published 2025).

For one data set, the system named is Mrp2, Mrp3, and Mrp4. As to conditions: daily gavage for 4 days consecutively; normal mouse liver (without IRI); cited from earlier work.
The conditions of data set [1]: normal rats; ICG 10 μg/kg, sodium fluorescein 2 mg/kg; cited from earlier work.
For data set [2] the following is noted: normal value; cited from earlier work.
Data set [3] can be described thus: Sodium fluorescein clearance kinetics in blood and bile in the in vivo rat hepatic IRI model. Also on record: species or system Sprague-Dawley rats. An excerpt:
Male 7- to 8-wk-old Sprague-Dawley rats (median body weight of 243 g, interquartile range of 228-260 g, Charles River Laboratories) were housed in an animal facility accredited by the Association for Assessment and Accreditation of Laboratory Animal Care. The rats were fed Purina Lab Diet 5001 and reverse osmosis water ad libitum. All animals received humane care in accordance with the National Institutes of Health Guide for the Care and Use of Laboratory Animals. Only male rats were used in these experiments because multidrug resistance-associated protein 2 (MRP2), which is responsible for fluorescein excretion from the hepatocyte, is impaired by estradiol glucuronide. All experiments were approved by the Institutional Animal Care and Use Committee at the Medical College of Wisconsin (animal use Application No. 00004857).
We evaluated the effect of hepatic IRI on sodium fluorescein clearance by applying different warm ischemia times (WITs; 0 min, 30 min, or 60 min) and reperfusion times (1 h or 4 h). Thus, there were five experimental groups (n=5 each) based on ischemia and reperfusion times: no ischemia (control), brief ischemia (30 min) followed by 1 h of reperfusion, prolonged ischemia (60 min) followed by 1 h of reperfusion, brief ischemia (30 min) followed by 4 h of reperfusion, and prolonged ischemia (60 min) followed by 4 h of reperfusion (FIG. 32A).
Surgery was performed under isoflurane inhalation anesthesia (1%-3%; oxygen flow 1 L/min). Animals were placed on a warming pad set to obtain a temperature of around 39° C. (Far Infrared Warming Pad, Kent Scientific, Torrington, CT). A transverse abdominal incision was made, and the pedicles to the median and lateral lobes of the liver (˜70% of the volume of the liver) were temporarily occluded using a small vascular clamp (FE011K, Aesculap, Melsungen, Germany). This approach has been utilized for testing the effect of hepatic IRI on biliary excretion of fluorescein. During the designated time period for hepatic IRI, the abdominal wall was temporarily closed to prevent dehydration and heat loss.
For injection and sampling, blood vessels and the bile duct were cannulated as follows: a midline incision was made on the neck, and 8- to 10-cm polyethylene tubes were cannulated to the right jugular vein (0.58 mm inner diameter (ID)×0.97 mm outer diameter (OD); PE50, Braintree Scientific, Braintree, MA) and right carotid artery (0.28 mm ID×0.61 mm OD; PE10, Braintree Scientific, Braintree, MA). The polyethylene tubes in the vessels were attached to a 30-gauge blunt needle (SAI Infusion Technologies, Lake Villa, IL) and filled with 20 U/mL heparin in 0.9% saline. Another polyethylene tube (0.28 mm ID×0.61 mm OD; PE10, Braintree Scientific, Braintree, MA) was cannulated into the bile duct for bile sampling (FIG. 33B). The cannulation procedure was performed under a surgical microscope (Amscope, Irvine, CA).
Blood and bile were collected at eight time points over 60 min (0, 2, 5, 10, 20, 30, 45, and 60 min). At each time point, 180 μL of blood was collected by a heparin-coated syringe from the polyethylene tubing in the left carotid artery and mixed with 20 μL of heparin solution (10,000 U/mL). Of this 200-μL blood sample, 20 μL was used for whole blood analysis. The remaining 180 μL was centrifuged (3,000 rpm for 10 min), and 20 μL of supernatant was collected for plasma sample analysis. Likewise, 30 μL of bile was collected from the polyethylene tubing in the bile duct at each time point.
Once the baseline (0 min) samples were collected, sodium fluorescein (Sigma-Aldrich, St. […]
The blood, plasma, and bile samples (20 μL each) were placed in a 384-well plate (Greiner Bio-one, Monroe, NC) and covered with plastic film to minimize evaporation. The fluorescence intensity was measured in the samples using a microplate reader (CLARIOstar, BMG Labtech, Ortenberg, Germany), with the excitation set at 478 nm and emission light collected within the 505-552-nm spectral range. […]

Data set [4] is described as follows: Fluorescein clearance (bile-to-perfusate fluorescence) in ex vivo rat liver machine perfusion. As to conditions: WIT varied, CIT constant at 3 hours. An excerpt:
This Example presents data obtained using ex vivo rat liver tissue in a perfusion machine system and provides further evidence supporting the usefulness of such measurements as a way to assess transplant tissue health and quality. With liver transplant there are two ischemia times: warm ischemia time (WIT) which is the time from tissue removal from the donor until cold fluid perfusion into the liver tissue; after cold perfusion, the remaining ischemia is termed cold ischemia time (CIT), which is slower. Most liver tissue can tolerate up to 30 min. of WIT whereas CIT can be tolerated for up to 12 hours. A certain amount of WIT and CIT cannot be prevented since some time is always required at each stage, nevertheless the goal is to minimize WIT.
In the experiments of FIG. 39, the WIT was varied while keeping the CIT constant at 3 hours. After this regimen, the fluorescein clearance was tested and the ratio of fluorescein in bile relative to the amount in perfusate was determined at various times.

For data set [5] the following is noted: cited from earlier work.
Where [6] appears, read: severe hepatic IRI (WIT=60 min) vs control and mild IRI groups, 2 mg/kg i.v.

With `Cc1c(-c2cnccn2)ssc1=S` [oltipraz], in the data set with Mrp2, Mrp3, and Mrp4, the “induction of Mrp2, Mrp3, and Mrp4” value is “induced”.

In the case of `CC1(C)C(/C=C/C=C/C=C/C=C2\N(CCCCS(=O)(=O)O)c3ccc4ccccc4c3C2(C)C)=[N+](CCCCS(=O)(=O)[O-])c2ccc3ccccc3c21` [ICG, Indocyanine green], the “time to reach a steady state” value in data set [1] is listed as less than 30 min. Also, in data set [2], the “ICG retention ratio after 15 min (ICGR15)” value was less than 10% and the “plasma disappearance rate (ICGPDR)” value is given as “over 18 %/min”.

On to `O=C1OC2(c3ccc(O)cc3Oc3cc(O)ccc32)c2ccccc21` [sodium fluorescein], for which, in data set [3] (2 mg/kg i.v., WIT 0, 30, 60 min, 1 h or 4 h reperfusion), the “bile-to-plasma fluorescence ratios across warm ischemia time (WIT) groups” value is recorded as “inverse correlation with WIT; also recorded: stepwise decrease”. Moreover, the “bile-to-plasma (or bile-to-whole blood) fluorescence ratios in the 60-min WIT group” value in data set [3] (2 mg/kg i.v., vs control or 30-min WIT groups) is “distinctly lower”. In data set [3] (IRI vs control, intravenous infusion, preliminary in vivo rat experiment (FIG. 4)), the “excretion of fluorescein measured by fluorescence in bile samples” value was “noticeably compromised”. Moreover, the “significant clearance of fluorescein from blood into bile” value in data set [3] (i.v. bolus 2 mg/kg) is recorded as “observed immediately”. Further, the “delay of clearance from blood into bile” value in data set [3] (i.v. dose of 10 mg/kg) is reported as “over 1 h”. In addition, the “hepatic clearance of fluorescein” value in data set [3] (in hepatic IRI) was “suppressed”. Besides, in data set [3] (setting [6]), the “fluorescence intensities in bile” value is listed as “lower”; the “fluorescence intensities in whole blood and plasma” value is given as “elevated”. In data set [4], the “area under the curve (AUC) of bile-to-perfusate fluorescence intensity” value is “inversely correlated with WIT” and the “time course of bile-to-perfusate fluorescence intensity values (excretion of fluorescein)” value is reported as “compromised excretion”. Further, in data set [1], the “time to reach a steady state” value is less than 10 min. Moreover, the “time to equilibrium of fluorescence intensity in hepatocytes and bile” value in data set [5] (after dye injection) is recorded as not above 5 min. Moreover, the “time in which metabolism by the liver through membrane transporters and excretion into bile occurs” value in data set [5] (healthy liver) was not above 15 min. The “time to clearance from the blood into the bile” value in data set [5] (intravenous administration, normal livers) is listed as not above 5 min.
